#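 Grown in 96-well plates, cells were treated for 48 hours with each compound at five concentrations. Insufficient inhibition: endpoint recorded as highest concentration tested. TGI marks complete inhibition of growth.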
# What was measured:
# Assay in all cases: NCI tumour cell line growth inhibition, 48 h
# [1] = tested on: 786-0 renal
# [2] = tested on: A498 renal
# [3] = tested on: A549 NSCLC
# [4] = tested on: ACHN renal
# [5] = tested on: BT-549 breast
# [6] = tested on: CAKI-1 renal
# [7] = tested on: CCRF-CEM leukemia
# [8] = tested on: COLO 205 colon
# [9] = tested on: DU-145 prostate
# [10] = tested on: EKVX NSCLC
# [11] = tested on: HCC-2998 colon
# [12] = tested on: HCT-116 colon
# [13] = tested on: HCT-15 colon
# [14] = tested on: HL-60(TB) leukemia
# [15] = tested on: HOP-62 NSCLC
# [16] = tested on: HOP-92 NSCLC
# [17] = tested on: HS 578T breast
# [18] = tested on: HT29 colon
# [19] = tested on: IGROV1 ovarian
# [20] = tested on: K-562 leukemia
# [21] = tested on: KM12 colon
# [22] = tested on: LOX IMVI melanoma
# [23] = tested on: M14 melanoma
# [24] = tested on: MALME-3M melanoma
# [25] = tested on: MCF7 breast
# [26] = tested on: MDA-MB-231 breast
# [27] = tested on: MDA-MB-435
# [28] = tested on: MDA-N
# [29] = tested on: MOLT-4 leukemia
# [30] = tested on: NCI-H226 lung
# [31] = tested on: NCI-H23 lung
# [32] = tested on: NCI-H460 lung
# [33] = tested on: NCI-H522 lung
# [34] = tested on: NCI/ADR-RES ovarian
# [35] = tested on: OVCAR-3 ovarian
# [36] = tested on: OVCAR-4 ovarian
# [37] = tested on: OVCAR-5 ovarian
# [38] = tested on: OVCAR-8 ovarian
# [39] = tested on: PC-3 prostate
# [40] = tested on: RPMI-8226 leukemia
# [41] = tested on: RXF 393 renal
# [42] = tested on: SF-268 CNS
# [43] = tested on: SF-295 CNS
# [44] = tested on: SF-539 CNS
# [45] = tested on: SK-MEL-2 melanoma
# [46] = tested on: SK-MEL-28 melanoma
# [47] = tested on: SK-MEL-5 melanoma
# [48] = tested on: SK-OV-3 ovarian
# [49] = tested on: SN12C renal
# [50] = tested on: SNB-19 CNS
# [51] = tested on: SNB-75 CNS
# [52] = tested on: SR leukemia
# [53] = tested on: SW-620 colon
# [54] = tested on: T-47D breast
# [55] = tested on: TK-10 renal
# [56] = tested on: U251 CNS
# [57] = tested on: UACC-257 melanoma
# [58] = tested on: UACC-62 melanoma
# [59] = tested on: UO-31 renal
# [60] = tested on: DLD-1 colon
# [61] = tested on: DMS 114 small cell lung
# [62] = tested on: DMS 273 small cell lung
# [63] = tested on: HOP-18 NSCLC
# [64] = tested on: KM20L2 colon
# [65] = tested on: LXFL 529 NSCLC
# [66] = tested on: M19-MEL melanoma
compound,measurement,setting,value
COC(=O)C1Cc2c(C)cccc2C1=O (configuration not stated),TGI,[1],> 100 µM
same,TGI,[2],> 100 µM
same,TGI,[3],> 100 µM
same,TGI,[4],> 100 µM
same,TGI,[5],> 100 µM
same,TGI,[6],> 100 µM
same,TGI,[7],> 100 µM
same,TGI,[8],> 100 µM
same,TGI,[9],> 100 µM
same,TGI,[10],> 100 µM
same,TGI,[11],> 100 µM
same,TGI,[12],> 100 µM
same,TGI,[13],> 100 µM
same,TGI,[14],77.8 µM
same,TGI,[15],> 100 µM
same,TGI,[16],> 100 µM
same,TGI,[17],> 100 µM
same,TGI,[18],> 100 µM
same,TGI,[19],> 100 µM
same,TGI,[20],> 100 µM
same,TGI,[21],> 100 µM
same,TGI,[22],> 100 µM
same,TGI,[23],> 100 µM
same,TGI,[24],> 100 µM
same,TGI,[25],> 100 µM
same,TGI,[26],> 100 µM
same,TGI,[27],> 100 µM
same,TGI,[28],> 100 µM
same,TGI,[29],> 100 µM
same,TGI,[30],> 100 µM
same,TGI,[31],> 100 µM
same,TGI,[32],> 100 µM
same,TGI,[33],> 100 µM
same,TGI,[34],> 100 µM
same,TGI,[35],> 100 µM
same,TGI,[36],> 100 µM
same,TGI,[37],> 100 µM
same,TGI,[38],> 100 µM
same,TGI,[39],> 100 µM
same,TGI,[40],> 100 µM
same,TGI,[41],> 100 µM
same,TGI,[42],> 100 µM
same,TGI,[43],> 100 µM
same,TGI,[44],> 100 µM
same,TGI,[45],> 100 µM
same,TGI,[46],> 100 µM
same,TGI,[47],> 100 µM
same,TGI,[48],> 100 µM
same,TGI,[49],> 100 µM
same,TGI,[50],> 100 µM
same,TGI,[51],> 100 µM
same,TGI,[52],> 100 µM
same,TGI,[53],> 100 µM
same,TGI,[54],> 100 µM
same,TGI,[55],> 100 µM
same,TGI,[56],> 100 µM
same,TGI,[57],> 100 µM
same,TGI,[58],> 100 µM
same,TGI,[59],> 100 µM
COC(=O)N1[C@H]2Cc3c(OC)c(C)c(OC)c(OC)c3[C@@H]1/C(=C\c1cc(OC)c(OC)c(C)c1OC)N(Cc1ccccc1)C2=O,TGI,[1],> 100 µM
same,TGI,[2],> 100 µM
same,TGI,[3],> 100 µM
same,TGI,[4],> 100 µM
same,TGI,[6],> 100 µM
same,TGI,[7],> 100 µM
same,TGI,[8],32 µM
same,TGI,[60],> 100 µM
same,TGI,[61],35.3 µM
same,TGI,[62],> 100 µM
same,TGI,[10],> 100 µM
same,TGI,[11],> 100 µM
same,TGI,[12],> 100 µM
same,TGI,[14],30.2 µM
same,TGI,[63],> 100 µM
same,TGI,[15],> 100 µM
same,TGI,[16],> 100 µM
same,TGI,[18],> 100 µM
same,TGI,[19],> 100 µM
same,TGI,[20],> 100 µM
same,TGI,[21],> 100 µM
same,TGI,[64],> 100 µM
same,TGI,[22],> 100 µM
same,TGI,[65],> 100 µM
same,TGI,[23],> 100 µM
same,TGI,[66],60 µM
same,TGI,[24],88.7 µM
same,TGI,[29],75.2 µM
same,TGI,[30],11.7 µM
same,TGI,[31],> 100 µM
same,TGI,[32],> 100 µM
same,TGI,[33],37.2 µM
same,TGI,[35],> 100 µM
same,TGI,[36],> 100 µM
same,TGI,[37],> 100 µM
same,TGI,[38],> 100 µM
same,TGI,[40],> 100 µM
same,TGI,[41],> 100 µM
same,TGI,[42],> 100 µM
same,TGI,[43],> 100 µM
same,TGI,[44],> 100 µM
same,TGI,[45],> 100 µM
same,TGI,[46],> 100 µM
same,TGI,[47],53.8 µM
same,TGI,[48],> 100 µM
same,TGI,[49],> 100 µM
same,TGI,[50],> 100 µM
same,TGI,[51],> 100 µM
same,TGI,[52],94.1 µM
same,TGI,[55],> 100 µM
same,TGI,[56],> 100 µM
same,TGI,[57],> 100 µM
same,TGI,[58],> 100 µM
same,TGI,[59],> 100 µM
O=C(CCSC(CC(=O)c1ccc(Cl)cc1)c1ccc(Cl)cc1)Nc1ccc(Cl)cc1 (configuration not stated),TGI,[1],27.6 µM
same,TGI,[2],25.1 µM
same,TGI,[3],40 µM
same,TGI,[4],27.5 µM
same,TGI,[5],27.1 µM
same,TGI,[6],57.2 µM
same,TGI,[7],5.55 µM
same,TGI,[8],35.2 µM
same,TGI,[9],27 µM
same,TGI,[10],25.4 µM
same,TGI,[11],27 µM
same,TGI,[12],18.5 µM
same,TGI,[13],24.2 µM
same,TGI,[14],20.4 µM
same,TGI,[15],29.1 µM
same,TGI,[16],32.9 µM
same,TGI,[17],64.1 µM
same,TGI,[18],24.6 µM
same,TGI,[19],29.6 µM
same,TGI,[20],18.6 µM
same,TGI,[21],12.4 µM
same,TGI,[22],18.3 µM
same,TGI,[23],28.2 µM
same,TGI,[24],30.6 µM
same,TGI,[25],15.3 µM
same,TGI,[26],33.4 µM
same,TGI,[27],25.6 µM
same,TGI,[28],26 µM
same,TGI,[29],11.5 µM
same,TGI,[30],41.5 µM
same,TGI,[31],30.4 µM
same,TGI,[32],28.6 µM
same,TGI,[33],40.2 µM
same,TGI,[34],40.2 µM
same,TGI,[35],27.1 µM
same,TGI,[36],35.5 µM
same,TGI,[37],31.6 µM
same,TGI,[38],29.1 µM
same,TGI,[39],27.1 µM
same,TGI,[40],5.57 µM
same,TGI,[41],28.2 µM
same,TGI,[42],29 µM
same,TGI,[43],25.8 µM
same,TGI,[44],32.6 µM
same,TGI,[45],28.9 µM
same,TGI,[46],29.4 µM
same,TGI,[47],29.4 µM
same,TGI,[48],42.3 µM
same,TGI,[49],24.8 µM
same,TGI,[50],26.6 µM
same,TGI,[51],36.4 µM
same,TGI,[52],9.57 µM
same,TGI,[53],10.5 µM
same,TGI,[54],22.2 µM
same,TGI,[55],29.9 µM
same,TGI,[56],21.1 µM
same,TGI,[57],29.6 µM
same,TGI,[58],21.9 µM
same,TGI,[59],26.9 µM
